This is an account of results in patent US20080045494A1, “Pyridine Analogues VI” (ASTRAZENECA AB, priority 2006, published 2008).

In this experiment the target is T1, P2Y12 receptor (Homo sapiens, UniProt Q9H244).
T1 construct: expressed in transfected cells; host or cells: CHO cells (membranes)
Briefly: Functional inhibition of 2-Me-S-ADP induced P2Y12 signalling (35S-GTPγS, membranes from P2Y12 transfected CHO-cells). The format is biochemical. To be noted: EC80 concentration of agonist 2-methyl-thio-adenosine diphosphate; 30° C., 45 min. The protocol:
Functional inhibition of the P2Y12 receptor can be measured by in vitro assays using cell membranes from P2Y12 transfected CHO-cells, the methodology is indicated below.
Functional inhibition of 2-Me—S-ADP induced P2Y12 signalling: 5 μg of membranes were diluted in 200 μl of 200 mM NaCl, 1 mM MgCl2, 50 mM HEPES (pH 7.4), 0.01% BSA, 30 μg/ml saponin and 10 μM GDP. To this was added an EC80 concentration of agonist (2-methyl-thio-adenosine diphosphate), the required concentration of test compound and 0.1 μCi ^35S-GTPγS. The reaction was allowed to proceed at 30° C. for 45 min. Samples were then transferred on to GF/B filters using a cell harvester and washed with wash buffer (50 mM Tris (pH 7.4), 5 mM MgCl2, 50 mM NaCl). Filters were then covered with scintillant and counted for the amount of ^35S-GTPγS retained by the filter. Maximum activity was that determined in the presence of the agonist and minimum activity in the absence of the agonist following subtraction of the value determined for non-specific activity. The effect of compounds at various concentrations was plotted according to the equation: […]
y=A+((B−A)/(1+((C/x)̂D)))
A is the bottom plateau of the curve i.e. the final minimum y value
B is the top of the plateau of the curve i.e. the final maximum y value
C is the x value at the middle of the curve. This represents the log EC50 value when A+B=100 […]

T1 sequence (Q9H244 whole entry): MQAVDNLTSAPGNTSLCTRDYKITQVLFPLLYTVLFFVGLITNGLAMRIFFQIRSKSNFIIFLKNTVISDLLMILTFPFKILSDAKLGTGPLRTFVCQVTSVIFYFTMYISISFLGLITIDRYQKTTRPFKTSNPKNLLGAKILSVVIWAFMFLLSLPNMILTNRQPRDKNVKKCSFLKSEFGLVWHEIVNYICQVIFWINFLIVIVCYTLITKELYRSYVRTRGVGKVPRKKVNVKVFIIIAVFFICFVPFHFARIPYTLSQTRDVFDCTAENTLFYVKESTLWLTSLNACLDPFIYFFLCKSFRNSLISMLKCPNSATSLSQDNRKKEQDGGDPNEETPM

Regarding `CCOC(=O)c1cc(C#N)c(NCC(=O)NS(=O)(=O)CCc2ccccc2)nc1C(F)(F)F` [Example 6, Ethyl 5-cyano-6-[(2-oxo-2-{[(2-phenylethyl)sulfonyl]amino}ethyl)amino]-2-(trifluoromethyl)nicotinate], the IC50 was found to be 240 nM.

“Ethyl 6-{[3-({[(5-chloro-2-thienyl)sulfonyl]amino}carbonyl)cyclopentyl]amino}-5-cyano-1-(trifluoromethyl)nicotinate [Example 3]” registered an IC50 of 810 nM.
